Experiments:
[1] = system: CCRF-CEM; test: NCI-60 SRB screen; type: cell-based; settings: Homo sapiens, single dose 10^−5 M, Leukaemia, read-out: Growth inhibition (%)
[2] = system: HL-60(TB); test: NCI-60 SRB screen; type: cell-based, human; settings: Homo sapiens; single dose 10^−5 M; HL-60(TB), Leukaemia; read-out: Growth inhibition (%)
[3] = system: K-562; test: NCI-60 SRB screen; type: cell-based, human; settings: Homo sapiens, K562; single dose 10^−5 M; K-562, Leukaemia; read-out: Growth inhibition (%)
[4] = system: MOLT-4; test: NCI-60 SRB screen; type: cell-based; settings: Homo sapiens; single dose 10^−5 M; MOLT-4, Leukaemia; read-out: Growth inhibition (%)
[5] = system: SR; test: NCI-60 SRB screen; type: cell-based; settings: Homo sapiens, single dose 10^−5 M, Leukaemia, read-out: Growth inhibition (%)
[6] = system: A549/ATCC; test: NCI-60 SRB screen; type: cell-based, human; settings: Homo sapiens, single dose 10^−5 M, Non-small cell lung carcinoma, read-out: Growth inhibition (%)
[7] = system: EKVX; test: NCI-60 SRB screen; type: cell-based, human; settings: Homo sapiens, single dose 10^−5 M, Non-small cell lung carcinoma, read-out: Growth inhibition (%)
[8] = system: HOP-62; test: NCI-60 SRB screen; type: cell-based, human; settings: Homo sapiens; single dose 10^−5 M; HOP-62, Non-small cell lung carcinoma; read-out: Growth inhibition (%)
[9] = system: HOP-92; test: NCI-60 SRB screen; type: cell-based, human; settings: Homo sapiens; single dose 10^−5 M; HOP-92, Non-small cell lung carcinoma; read-out: Growth inhibition (%)
[10] = system: NCI-H226; test: NCI-60 SRB screen; type: cell-based, human; settings: Homo sapiens; single dose 10^−5 M; NCI-H226, Non-small cell lung carcinoma; read-out: Growth inhibition (%)
[11] = system: NCI-H23; test: NCI-60 SRB screen; type: cell-based, human; settings: Homo sapiens; single dose 10^−5 M; NCI-H23, Non-small cell lung carcinoma; read-out: Growth inhibition (%)
[12] = system: NCI-H322M; test: NCI-60 SRB screen; type: cell-based, human; settings: Homo sapiens, single dose 10^−5 M, Non-small cell lung carcinoma, read-out: Growth inhibition (%)
[13] = system: NCI-H460; test: NCI-60 SRB screen; type: cell-based, human; settings: Homo sapiens; single dose 10^−5 M; NCI-H460, Non-small cell lung carcinoma; read-out: Growth inhibition (%)
[14] = system: NCI-H522; test: NCI-60 SRB screen; type: cell-based, human; settings: Homo sapiens; single dose 10^−5 M; NCI-H522, Non-small cell lung carcinoma; read-out: Growth inhibition (%)
[15] = system: COLO 205; test: NCI-60 SRB screen; type: cell-based, human; settings: Homo sapiens; single dose 10^−5 M; COLO 205, Colon cancer; read-out: Growth inhibition (%)
[16] = system: HCT-116; test: NCI-60 SRB screen; type: cell-based, human; settings: Homo sapiens; single dose 10^−5 M; HCT-116, Colon cancer; read-out: Growth inhibition (%)
[17] = system: HCT-15; test: NCI-60 SRB screen; type: cell-based, human; settings: Homo sapiens; single dose 10^−5 M; HCT-15, Colon cancer; read-out: Growth inhibition (%)
[18] = system: HT-29; test: NCI-60 SRB screen; type: cell-based; settings: Homo sapiens; single dose 10^−5 M; HT-29, Colon cancer; read-out: Growth inhibition (%)
[19] = system: KM12; test: NCI-60 SRB screen; type: cell-based, human; settings: Homo sapiens; single dose 10^−5 M; KM12, Colon cancer; read-out: Growth inhibition (%)
[20] = system: SW-620; test: NCI-60 SRB screen; type: cell-based; settings: Homo sapiens; single dose 10^−5 M; SW-620, Colon cancer; read-out: Growth inhibition (%)
[21] = system: SF-268; test: NCI-60 SRB screen; type: cell-based, human; settings: Homo sapiens; single dose 10^−5 M; SF-268, CNS cancer; read-out: Growth inhibition (%)
[22] = system: SF-295; test: NCI-60 SRB screen; type: cell-based, human; settings: Homo sapiens; single dose 10^−5 M; SF-295, CNS cancer; read-out: Growth inhibition (%)
[23] = system: MALME-3M; test: NCI-60 SRB screen; type: cell-based, human; settings: Homo sapiens, single dose 10^−5 M, Melanoma, read-out: Growth inhibition (%)
[24] = system: M14; test: NCI-60 SRB screen; type: cell-based, human; settings: Homo sapiens; single dose 10^−5 M; M14, Melanoma; read-out: Growth inhibition (%)
[25] = system: MDA-MB-435; test: NCI-60 SRB screen; type: cell-based; settings: Homo sapiens, MDA-MB-435, read-out: Growth inhibition (%)
[26] = system: SK-MEL-2; test: NCI-60 SRB screen; type: cell-based, human; settings: Homo sapiens; single dose 10^−5 M; SK-MEL-2, Melanoma; read-out: Growth inhibition (%)
[27] = system: SK-MEL-28; test: NCI-60 SRB screen; type: cell-based; settings: Homo sapiens; single dose 10^−5 M; SK-MEL-28, Melanoma; read-out: Growth inhibition (%)
[28] = system: SK-MEL-5; test: NCI-60 SRB screen; type: cell-based, human; settings: Homo sapiens; single dose 10^−5 M; SK-MEL-5, Melanoma; read-out: Growth inhibition (%)
[29] = system: UACC-257; test: NCI-60 SRB screen; type: cell-based, human; settings: Homo sapiens; single dose 10^−5 M; UACC-257, Melanoma; read-out: Growth inhibition (%)
[30] = system: UACC-62; test: NCI-60 SRB screen; type: cell-based, human; settings: Homo sapiens; single dose 10^−5 M; UACC-62, Melanoma; read-out: Growth inhibition (%)
[31] = system: IGROV1; test: NCI-60 SRB screen; type: cell-based, human; settings: Homo sapiens, IGROV-1; single dose 10^−5 M; IGROV1, Ovarian cancer; read-out: Growth inhibition (%)
[32] = system: OVCAR-3; test: NCI-60 SRB screen; type: cell-based, human; settings: Homo sapiens; single dose 10^−5 M; OVCAR-3, Ovarian cancer; read-out: Growth inhibition (%)
[33] = system: OVCAR-4; test: NCI-60 SRB screen; type: cell-based, human; settings: Homo sapiens; single dose 10^−5 M; OVCAR-4, Ovarian cancer; read-out: Growth inhibition (%)
[34] = system: OVCAR-8; test: NCI-60 SRB screen; type: cell-based, human; settings: Homo sapiens; single dose 10^−5 M; OVCAR-8, Ovarian cancer; read-out: Growth inhibition (%)
[35] = system: NCI/ADR-RES; test: NCI-60 SRB screen; type: cell-based, human; settings: Homo sapiens, single dose 10^−5 M, Ovarian cancer, read-out: Growth inhibition (%)
[36] = system: SK-OV-3; test: NCI-60 SRB screen; type: cell-based, human; settings: Homo sapiens; single dose 10^−5 M; SK-OV-3, Ovarian cancer; read-out: Growth inhibition (%)
[37] = system: 786-0; test: NCI-60 SRB screen; type: cell-based; settings: Homo sapiens; single dose 10^−5 M; 786-0, Renal cancer; read-out: Growth inhibition (%)
[38] = system: ACHN; test: NCI-60 SRB screen; type: cell-based; settings: Homo sapiens, single dose 10^−5 M, Renal cancer, read-out: Growth inhibition (%)
[39] = system: CAKI-1; test: NCI-60 SRB screen; type: cell-based, human; settings: Homo sapiens; single dose 10^−5 M; CAKI-1, Renal cancer; read-out: Growth inhibition (%)
[40] = system: RXF 393; test: NCI-60 SRB screen; type: cell-based, human; settings: Homo sapiens; single dose 10^−5 M; RXF 393, Renal cancer; read-out: Growth inhibition (%)
[41] = system: SN12C; test: NCI-60 SRB screen; type: cell-based, human; settings: Homo sapiens, SN12C; single dose 10^−5 M; SN 12 C, Renal cancer; read-out: Growth inhibition (%)
[42] = system: TK-10; test: NCI-60 SRB screen; type: cell-based, human; settings: Homo sapiens; single dose 10^−5 M; TK-10, Renal cancer; read-out: Growth inhibition (%)
[43] = system: UO-31; test: NCI-60 SRB screen; type: cell-based, human; settings: Homo sapiens; single dose 10^−5 M; UO-31, Renal cancer; read-out: Growth inhibition (%)
[44] = system: panel of 60 cancer cell lines; test: NCI-60 SRB screen, mean or range over the panel; type: cell-based, human; settings: Homo sapiens; mean over the cell lines; single dose 10^−5 M; read-out: Mean growth inhibition (%)

N#CC1=C(Cl)NC(c2cccc([N+](=O)[O-])c2)c2sc3c(F)cccc3c21 (centres unmarked) [Compound 7b, 3-Chloro-4-cyano-8-fluoro-1-(3-nitrophenyl)-1,2-dihydro[1]benzothieno [2,3-c]pyridine]
inhibition at 10 µM [1]: 3.22% | inhibition at 10 µM [2]: 1.47% | inhibition at 10 µM [3]: 8.8% | inhibition at 10 µM [4]: 7.93% | inhibition at 10 µM [5]: 15.9% | inhibition at 10 µM [6]: -10.1% | inhibition at 10 µM [7]: -1.36% | inhibition at 10 µM [8]: 9.67% | inhibition at 10 µM [9]: 10.4% | inhibition at 10 µM [10]: 9.35% | inhibition at 10 µM [11]: 4.25% | inhibition at 10 µM [12]: -3.17% | inhibition at 10 µM [13]: 2.14% | inhibition at 10 µM [14]: -1.38% | inhibition at 10 µM [15]: -14.6% | inhibition at 10 µM [16]: 11.7% | inhibition at 10 µM [17]: -7.25% | inhibition at 10 µM [18]: -3.29% | inhibition at 10 µM [19]: -0.12% | inhibition at 10 µM [20]: 3.78% | inhibition at 10 µM [21]: 6.82% | inhibition at 10 µM [22]: -4.69% | inhibition at 10 µM [23]: -2.31% | inhibition at 10 µM [24]: -5.17% | inhibition at 10 µM [25]: -8.18% | inhibition at 10 µM [26]: -2.07% | inhibition at 10 µM [27]: -11.2% | inhibition at 10 µM [28]: -20.1% | inhibition at 10 µM [29]: -9.77% | inhibition at 10 µM [30]: 8.84% | inhibition at 10 µM [31]: 15.6% | inhibition at 10 µM [32]: -1.67% | inhibition at 10 µM [33]: -3.81% | inhibition at 10 µM [34]: -4.49% | inhibition at 10 µM [35]: 1.73% | inhibition at 10 µM [36]: 2.24% | inhibition at 10 µM [37]: -13.5% | inhibition at 10 µM [38]: 4.44% | inhibition at 10 µM [39]: 19.8% | inhibition at 10 µM [40]: -15.8% | inhibition at 10 µM [41]: 4.43% | inhibition at 10 µM [42]: -53.8% | inhibition at 10 µM [43]: 32.5% | inhibition at 10 µM [44]: 2.14%

Source: paper PMC8330742, “New benzothieno[2,3-c]pyridines as non-steroidal CYP17 inhibitors: design, synthesis, anticancer screening, apoptosis induction, and in silico ADME profile studies” (Journal of Enzyme Inhibition and Medicinal Chemistry, 2021)
